Reference: patent US20230081529A1 (CBSBIOSCIENCE CO., LTD, priority 2020, published 2023)
Read-outs that look alike come from different tables or passages of the source.

Key:
[1] = tested on: hepatocellular carcinoma (HCC) patients; assay: Sorafenib treatment of 73 HCC patients: tumor response (mRECIST) and Kaplan-Meier survival; type: in vivo, human
Excerpt: This study included 73 histological confirmed HCC patients. […] All tissues were obtained by needle biopsy. The patients were from Ajou Medical Center (AMC). The protocol of this study was approved by the Institutional Review Boards of Ajou Medical Center (AMC).
From a DCR perspective, patients with complete response (CR), partial response (PR) and stable disease (SD) were considered as responders whereas those with progressive disease (PD) were judged as non-responders.
Relationship between treatment response and clinicopathologic variables was evaluated using Chi square tests or Fishers exact tests. Gene expression data were tested for normality with the Shapiro-Wilk test. […] Receiver operating characteristic (ROC) curve analysis was used to determine accuracy of threshold values classifying tumor responders and non-responders using gene signature. Kaplan-Meier survival (KM) curves were calculated using death as end point in overall survival (OS) and using death and progression disease as end point in progression free survival (PFS). The difference in KM curves was examined by log-rank test and the difference in hazard ratio was examined by Cox regression analysis. […] Significance was set at P<0.05 (two-tailed). All statistics were performed in R version 3.3.3 (R Development Core Team, https:/www.r-project.org/).

[2] = tested on: hepatocellular carcinoma (HCC) patients; settings: systemic first-line therapy without predictive biomarkers; cited from earlier work
[3] = entire patients treated with sorafenib
[4] = predicted good responders (8-gene signature)
[5] = predicted poor responders (8-gene signature)

CNC(=O)c1cc(Oc2ccc(NC(=O)Nc3ccc(Cl)c(C(F)(F)F)c3)cc2)ccn1 [sorafenib]
Median overall survival [1, 3]: 11.3 months | Median progression-free survival [1, 3]: 2.9 months | Median time to progression [1, 3]: 2.9 months | disease control rate ([1]; entire patients, before selection with the 8-gene signature): 28.77% | Tumor response: Progressive disease, number of patients ([1]; non-responders (n = 52)): 52 | Tumor response: Progressive disease, share of group ([1]; non-responders (n = 52)): 100.0% | number of non-responders (PD) ([1]; of 73 patients treated with sorafenib): 52 | disease control rate ([1]; patients selected with the 8-gene signature): 85.71% | Median progression-free survival [1, 4]: 5.8 months | Median time to progression [1, 4]: 5.8 months | Median overall survival [1, 5]: 6.7 months | Median progression-free survival [1, 5]: 2.8 months | Median time to progression [1, 5]: 2.8 months | Tumor response: Complete response, number of patients ([1]; responders (n = 21)): 2 | Tumor response: Complete response, share of group ([1]; responders (n = 21)): 9.5% | Tumor response: Partial response, number of patients ([1]; responders (n = 21)): 9 | Tumor response: Partial response, share of group ([1]; responders (n = 21)): 42.9% | Tumor response: Stable disease, number of patients ([1]; responders (n = 21)): 10 | Tumor response: Stable disease, share of group ([1]; responders (n = 21)): 47.6% | Median overall survival [2]: 10.7 months | objective response rates [2]: 2%
